≈ marks a conversion by molar mass, not a printed value.
Assays:
Test in all cases: In vitro MIC, 2010 surveillance isolates
E. cloacae CeftazR = format: cell-based
A. baumanii = format: cell-based; conditions: for % R (resistance): CLSI breakpoints
Acinetobacter spp = format: cell-based; conditions: for % R (resistance): CLSI breakpoints
E. coli ESBL+ = format: cell-based, Escherichia coli
K. pneumoniae ESBL− = format: cell-based, Klebsiella pneumoniae
K. oxytoca = format: cell-based; set-up: MIC90: unit: µg/mL
Enterobacter spp = format: cell-based
E. cloacae CeftazS = format: cell-based
E. coli ESBL− = format: cell-based, Escherichia coli
K. pneumoniae ESBL+ = format: cell-based, Klebsiella pneumoniae

CO/N=C(\C(=O)N[C@@H]1C(=O)N2C(C(=O)[O-])=C(C[N+]3(C)CCCC3)CS[C@H]12)c1csc(N)n1 [Cefepime]
% R (resistance) (E. cloacae CeftazR; Asia/Pac, Eucast breakpoints): 38.1%
MIC90 (E. cloacae CeftazR; Asia/Pac, N=63): > 16 µg/mL
% R (resistance) (E. cloacae CeftazR; Europe, Eucast breakpoints): 25%
MIC90 (E. cloacae CeftazR; Europe, N=72): > 16 µg/mL
% R (resistance) (E. cloacae CeftazR; L. Amer, CLSI breakpoints): 26.2%
MIC90 (E. cloacae CeftazR; L. Amer, N=42): > 16 µg/mL
% R (resistance) (E. cloacae CeftazR; N America, CLSI breakpoints): 6.5%
MIC90 (E. cloacae CeftazR; N America, N=77): 16 µg/mL (≈ 33.3 µM)
MIC90 (A. baumanii; Asia/Pac, N=275): > 16 µg/mL
MIC90 (A. baumanii; Europe, N=145): > 16 µg/mL
% R (resistance) (A. baumanii; L. Amer): 78.9%
MIC90 (A. baumanii; L. Amer, N=275): > 16 µg/mL
% R (resistance) (A. baumanii; N America): 61.7%
MIC90 (A. baumanii; N America, N=154): > 16 µg/mL
MIC90 (Acinetobacter spp; Europe, N=43): > 16 µg/mL
% R (resistance) (Acinetobacter spp; L. Amer): 55.6%
% R (resistance) (Acinetobacter spp; N America): 16.7%
MIC90 (Acinetobacter spp; N America, N=42): > 16 µg/mL
% R (resistance) (E. coli ESBL+; Asia/Pac, Eucast breakpoints): 73.5%
MIC90 (E. coli ESBL+; Asia/Pac, N=219): > 16 µg/mL
% R (resistance) (E. coli ESBL+; Europe, Eucast breakpoints): 69%
MIC90 (E. coli ESBL+; Europe, N=274): > 16 µg/mL
% R (resistance) (E. coli ESBL+; L. Amer, CLSI breakpoints): 47%
MIC90 (E. coli ESBL+; L. Amer, N=168): > 16 µg/mL
% R (resistance) (E. coli ESBL+; N America, CLSI breakpoints): 38.8%
MIC90 (E. coli ESBL+; N America, N=134): > 16 µg/mL
% R (resistance) (K. pneumoniae ESBL−; Asia/Pac, Eucast breakpoints): 0%
MIC90 (K. pneumoniae ESBL−; Asia/Pac, N=189): ≤ 0.12 µg/mL
% R (resistance) (K. pneumoniae ESBL−; Europe, Eucast breakpoints): 0%
MIC90 (K. pneumoniae ESBL−; Europe, N=361): ≤ 0.12 µg/mL
% R (resistance) (K. pneumoniae ESBL−; L. Amer, CLSI breakpoints): 0%
MIC90 (K. pneumoniae ESBL−; L. Amer, N=160): ≤ 0.12 µg/mL
% R (resistance) (K. pneumoniae ESBL−; N America, CLSI breakpoints): 0%
MIC90 (K. pneumoniae ESBL−; N America, N=671): ≤ 0.12 µg/mL
% R (resistance) (K. oxytoca; Asia/Pac, Eucast breakpoints): 23.5%
MIC90 (K. oxytoca; Asia/Pac, N=17): > 16 µg/mL
% R (resistance) (K. oxytoca; Europe, Eucast breakpoints): 4.4%
MIC90 (K. oxytoca; Europe, N=158): 1 µg/mL (≈ 2.08 µM)
MIC90 (K. oxytoca; L. Amer, N=25): >16 (16)
% R (resistance) (K. oxytoca; N America, CLSI breakpoints): 0%
MIC90 (K. oxytoca; N America, N=177): 0.25 µg/mL (≈ 0.52 µM)
% R (resistance) (Enterobacter spp; Asia/Pac, Eucast breakpoints): 5.8%
MIC90 (Enterobacter spp; Asia/Pac, N=52): 1 µg/mL (≈ 2.08 µM)
% R (resistance) (Enterobacter spp; Europe, Eucast breakpoints): 2.4%
MIC90 (Enterobacter spp; Europe, N=82): 1 µg/mL (≈ 2.08 µM)
% R (resistance) (Enterobacter spp; L. Amer, CLSI breakpoints): 14.3%
MIC90 (Enterobacter spp; L. Amer, N=42): > 16 µg/mL
% R (resistance) (Enterobacter spp; N America, CLSI breakpoints): 1%
MIC90 (Enterobacter spp; N America, N=101): 0.5 µg/mL (≈ 1.04 µM)
% R (resistance) (E. cloacae CeftazS; Asia/Pac, Eucast breakpoints): 2%
MIC90 (E. cloacae CeftazS; Asia/Pac, N=100): ≤ 0.12 µg/mL
% R (resistance) (E. cloacae CeftazS; Europe, Eucast breakpoints): 1.1%
MIC90 (E. cloacae CeftazS; Europe, N=183): 0.25 µg/mL (≈ 0.52 µM)
% R (resistance) (E. cloacae CeftazS; L. Amer, CLSI breakpoints): 10.5%
MIC90 (E. cloacae CeftazS; L. Amer, N=57): > 16 µg/mL
% R (resistance) (E. cloacae CeftazS; N America, CLSI breakpoints): 0%
MIC90 (E. cloacae CeftazS; N America, N=210): ≤ 0.12 µg/mL
% R (resistance) (E. coli ESBL−; Asia/Pac, Eucast breakpoints): 0%
MIC90 (E. coli ESBL−; Asia/Pac, N=282): 1 µg/mL (≈ 2.08 µM)
% R (resistance) (E. coli ESBL−; Europe, Eucast breakpoints): 0.1%
MIC90 (E. coli ESBL−; Europe, N=1533): ≤ 0.12 µg/mL
% R (resistance) (E. coli ESBL−; L. Amer, CLSI breakpoints): 0%
MIC90 (E. coli ESBL−; L. Amer, N=389): ≤ 0.12 µg/mL
% R (resistance) (E. coli ESBL−; N America, CLSI breakpoints): 0%
MIC90 (E. coli ESBL−; N America, N=1172): ≤ 0.12 µg/mL
% R (resistance) (K. pneumoniae ESBL+; Asia/Pac, Eucast breakpoints): 65.3%
MIC90 (K. pneumoniae ESBL+; Asia/Pac, N=124): > 16 µg/mL
% R (resistance) (K. pneumoniae ESBL+; Europe, Eucast breakpoints): 76.8%
MIC90 (K. pneumoniae ESBL+; Europe, N=151): > 16 µg/mL
% R (resistance) (K. pneumoniae ESBL+; L. Amer, CLSI breakpoints): 69.4%
MIC90 (K. pneumoniae ESBL+; L. Amer, N=209): > 16 µg/mL
% R (resistance) (K. pneumoniae ESBL+; N America, CLSI breakpoints): 43.5%
MIC90 (K. pneumoniae ESBL+; N America, N=108): > 16 µg/mL

CC(C)(O/N=C(\C(=O)N[C@@H]1C(=O)N2C(C(=O)[O-])=C(C[n+]3ccccc3)CS[C@H]12)c1csc(N)n1)C(=O)O [ceftazidime]
resistance rates for ESBL-producing clinical isolates (E. coli ESBL+; E. coli): 50%

Source: patent US10238670B2, “9-aminomethyl minocycline compounds and methods of use thereof in urinary tract infection (UTI) treatment” (Paratek Pharmaceuticals, Inc., priority 2016, dated 2019)
